Results from patent US20220362163A1, “METHODS AND COMPOSITIONS FOR CANCER TREATMENT USING NANOPARTICLES CONJUGATED WITH MULTIPLE LIGANDS FOR BINDING RECEPTORS ON NK CELLS” (The University of North Carolina at Chapel Hill, priority 2019, published 2022).

Tested on: A431 tumor
Assay: A431 tumor model in T-cell deficient Nu mice
Conditions: i.v. at 6, 8, 10 days post-inoculation

## COc1cccc2c1C(=O)c1c(O)c3c(c(O)c1C2=O)C[C@@](O)(C(=O)CO)C[C@@H]3O[C@H]1C[C@H](N)[C@@H](O)[C@H](C)O1 [free EPI, epirubicin]
  effect on tumor growth: slightly reduced the rate of tumor growth
